From patent US12152016B2, “Aryl hydrocarbon receptor modulators and uses thereof” (Beth Israel Deaconess Medical Center, Inc., priority 2018, dated 2024)
“Also recorded” adds a separate entry of the source.

Key:
[1] = LC-MS/MS analysis of plasma after oral dosing of mice; format: in vivo, mouse; conditions: LC-MS/MS of plasma samples
[2] = tested on: AHR-dependent transcription of the CYP1A1 gene; assay: CYP1A1 induction in mouse macrophages; format: cell-based
Protocol: (§1) Mouse macrophages were also used to test AHR-dependent transcription of the CYP1A1 gene in vivo. Finally, the activity of exemplary compounds of Formula (I) described herein was tested in the human […] cell line U937. The U937 cell line is derived from a patient with diffuse histiocytic lymphoma. Tables 2-4 summarize structure-activity relationship data collected for exemplary, non-limiting compounds of Formula (I) described herein.

[3] = Plasma stability (LCMS/MS); format: in vitro ADME; conditions: incubated in plasma
[4] = Liver microsomal stability (LCMS/MS); format: in vitro ADME; conditions: in the presence of liver microsomes
[5] = molecular target: T1, aryl hydrocarbon receptor (AHR) (Homo sapiens, UniProt P35869); assay: XRE-driven luciferase reporter assay, human HepG2; conditions: for EC50: XRE luciferase EC50, Human HepG2, least square curve fitting, >10,000 = does not reach 50% of Emax of ITE at 10 μM (highest concentration tested)
T1 sequence (P35869 11-848): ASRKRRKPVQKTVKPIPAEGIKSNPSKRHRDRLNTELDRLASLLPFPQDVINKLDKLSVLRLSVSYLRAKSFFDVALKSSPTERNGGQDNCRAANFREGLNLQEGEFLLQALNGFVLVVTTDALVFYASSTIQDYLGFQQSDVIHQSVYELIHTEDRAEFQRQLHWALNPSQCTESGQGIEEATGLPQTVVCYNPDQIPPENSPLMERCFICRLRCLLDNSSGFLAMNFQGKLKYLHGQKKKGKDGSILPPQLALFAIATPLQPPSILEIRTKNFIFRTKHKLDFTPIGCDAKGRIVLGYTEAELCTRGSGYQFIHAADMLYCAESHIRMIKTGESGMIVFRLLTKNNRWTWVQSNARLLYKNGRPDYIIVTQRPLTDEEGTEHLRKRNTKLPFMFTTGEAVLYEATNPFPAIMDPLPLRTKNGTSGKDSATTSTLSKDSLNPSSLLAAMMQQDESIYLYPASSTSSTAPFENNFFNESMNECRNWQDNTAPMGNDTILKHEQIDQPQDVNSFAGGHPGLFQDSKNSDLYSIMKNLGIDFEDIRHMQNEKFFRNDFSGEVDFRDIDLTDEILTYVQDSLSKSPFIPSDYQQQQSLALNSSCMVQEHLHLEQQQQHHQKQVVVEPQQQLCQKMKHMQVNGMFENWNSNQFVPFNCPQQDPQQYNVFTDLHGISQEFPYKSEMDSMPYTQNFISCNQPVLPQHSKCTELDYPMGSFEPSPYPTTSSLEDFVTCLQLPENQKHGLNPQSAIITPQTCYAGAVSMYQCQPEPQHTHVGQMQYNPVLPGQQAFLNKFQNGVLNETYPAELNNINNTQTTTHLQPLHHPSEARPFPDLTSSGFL
Protocol: The Human HepG2 cell line is a human liver cancer cell line, and provide a relevant in vitro AHR activity model. These Hep2G cells have been modified to stably express an AHR-responsive (XRE) firefly luciferase reporter gene to give Hep2G-XRE cells. The expression of luciferase should primarily reflect AHR-dependent transcription controlled by XRE.
Transfected cells were treated with AhR agonist (10^−5-10^−12) for 4.5 h in full medium. Cells were lysed and luciferase was activated using the Luciferase Assay System (Promega). Luminescence signals were measured with a FluroStar Omega microplate reader. Luminescence signals of compound treated groups were normalized to vehicle (DMSO) treated control and plotted as concentration dependent fold changes.

cyp1a1 [6] = assay: In vivo tissue cyp1a1 induction after oral gavage (PD profile); design: species or system mouse; conditions: mice, oral gavage 0.1-1000 μg, 12 hours
Protocol: RNA was extracted using TRIzol (Invitrogen) following manufacturer's instructions and 0.1 μg of RNA was converted to cDNA using a high capacity cDNA reverse transcription kit (Invitrogen). qPCR was performed on the Applied Biosystems 7900 using TaqMan® Universal PCR Master Mix (Life Technologies) with TaqMan® (Life Technologies) primers against cyp1a1 (Mm00487218_m1), AhR (Mm00478932_m1), IL-22 (Mm01226722_g1), Foxp3 (Mm00475162_m1), IL-10 (Mm01288386_m1), TNF-a (Mm00443258_m1), IFN-r (Mm01168134_m1). The fold increase from experimental groups to control was calculated using the delta-delta CT method with 18S (Mm00446186_m1) as an internal reference gene. In vitro and in vivo activation of the AhR singling pathway was confirmed by q-PCR characterization of cyp1a1. For in vitro induction, mouse Hepa-1c1c7 were cultured to confluence in 24 well plates in full DMEM followed by 24 hours incubation in tryptophan deficient media. Cells were treated with vehicle control (DMSO), ITE, compound 108, or compound 109 (10 nM-10 μM) for 8 hours in tryptophan deficient media. At the end of treatment, cells were lysed in TRIzol for RNA isolation. To monitor in vivo induction, (0.1-1000 μg) compound 109 was given per mouse via oral gavage in 100 μl of vehicle (1% HPMC, 1% polysorbate 80). […]

cyp1a1 [7] = assay: cyp1a1 expression by q-PCR in mouse Hepa-1c1c7 cells; format: cell-based
Protocol: RNA was extracted using TRIzol (Invitrogen) following manufacturer's instructions and 0.1 μg of RNA was converted to cDNA using a high capacity cDNA reverse transcription kit (Invitrogen). qPCR was performed on the Applied Biosystems 7900 using TaqMan® Universal PCR Master Mix (Life Technologies) with TaqMan® (Life Technologies) primers against cyp1a1 (Mm00487218_m1), AhR (Mm00478932_m1), IL-22 (Mm01226722_g1), Foxp3 (Mm00475162_m1), IL-10 (Mm01288386_m1), TNF-a (Mm00443258_m1), IFN-r (Mm01168134_m1). The fold increase from experimental groups to control was calculated using the delta-delta CT method with 18S (Mm00446186_m1) as an internal reference gene. In vitro and in vivo activation of the AhR singling pathway was confirmed by q-PCR characterization of cyp1a1. For in vitro induction, mouse Hepa-1c1c7 were cultured to confluence in 24 well plates in full DMEM followed by 24 hours incubation in tryptophan deficient media. Cells were treated with vehicle control (DMSO), ITE, compound 108, or compound 109 (10 nM-10 μM) for 8 hours in tryptophan deficient media. At the end of treatment, cells were lysed in TRIzol for RNA isolation. To monitor in vivo induction, (0.1-1000 μg) compound 109 was given per mouse via oral gavage in 100 μl of vehicle (1% HPMC, 1% polysorbate 80). After 12 hours, liver, colon, spleen and leukocytes from blood were collected and lysed in TRIzol (Invitrogen) for q-PCR analysis.

DSS induced colitis = DSS induced colitis in mice; format: in vivo, C57BL/6 mice; conditions: 1 μg/day PO; day 11
Protocol: C57BL/6 (8-10 week, male) mice were administered drinking water supplemented with 3% (wt/vol) dextran sodium sulfate (DSS; MP Biomedicals) for 7 days followed by a 13 day recovery period with unsupplemented drinking water. Compound 109 or compound 108 were suspended in vehicle (1% HPMC and 1% polysorbate 80 in water) and given daily by oral gavage (1 ug/mouse in 100 uL), starting at day 0. Control mice were administered 100 μL vehicle. Body weight and disease activity index (DAI) were recorded daily. DAI was determined by combining scores of weight loss, stool consistency, blood in stool, activity, and appearance.^1 Scores were determined as follows: change in weight (0: <1%, 1: 1-10%, 2: 10-18%, 3: 18-20%); stool consistency (0: normal, 1: loose stools, 2: diarrhea); stool blood (0: negative, 1: trace blood, 2: bloody stool, 3: gross bleeding), activity (0: normal, 1: low activity, 2: hiding, 3: no response to gentle stimuli) and appearance (0: normal, 1: rigor, 2: hunched posture). On day 7 and day 11, mice were euthanized and colon were removed for length measurement, histology, RNA isolation, and lamina propria mononuclear cell (LPMC) extraction as detailed below.
Dissected colon were cut longitudinally and rolled using the Swiss roll method with the distal side in the center.^2,3 Colons were fixed overnight in 10% neutral buffered formalin, processed for paraffin embedding and sectioned at 5 μm thickness. To visualize and quantify the inflammatory response and crypt loss, hematoxylin and eosin staining (H&E) was performed. Briefly, sections were cleared with xylene, rehydrated through alcohol gradient, stained by hematoxylin, washed by acid and ammonium alcohol, rinsed in water and exposed to Eosin followed by dehydrating through graded alcohols and cleared in xylene. All sections were mounted using Permount (Fisher Scientific) and visualized using a BX41 microscope (Olympus). For histological scoring, 3 transverse sections of Swiss roll were chosen and 9 (100×) images were captured for each section. Images were analyzed for inflammation and crypt structure and scored by a blind observer as follows: inflammation (0: rare inflammatory cells in the lamina propria; 1: increased numbers of inflammatory cells in the lamina propria; 2: confluence of inflammatory cells extending in to the submucosa; 3: transmural extension of the inflammatory infiltrate.); crypt loss (0: none; 1: basal 1/3 damaged; 2: basal 2/3 damaged; 3: only surface epithelium intact; 4: entire crypt and epithelium lost). Inflammation and crypt loss were scored separately and multiplied by a factor of 1-4 to adjust for impacted area of tissue section (1: 0-25%; 2: 25.1-50% affected; 3: 50.1-75% affected; 4: >75% affected).^1,4 To examine goblet cell number, sections were stained by a commercial periodic acid-Schiff (PAS) and Alcian blue kit (Fisher Scientific). For quantification, 3 transverse sections of Swiss roll were chosen per colon and 5 random images at 200x were taken per section in the distal region of the colon. Goblet cell number was counted per image and normalized to colon length by a blind observer using image J.^5
Colonic epithelium and lamina propria cells were isolated as previously described.^6,7 Briefly, colons were dissected and washed with HBSS to remove fecal contents. Colon were opened longitudinally and cut into 2 cm segments. […]

AhR [8] = molecular target: T2, AhR (Mus musculus, UniProt P30561); assay: AhR nuclear translocation assay, mouse Hepa-1c1c7; format: cell-based; conditions: mouse Hepa-1c1c7, 10 μM, 90 minutes
T2 construct: endogenous in cells; host or cells: Hepa-1c1c7 (mouse hepatoma cell line)
T2 sequence (P30561 10-805 limits assumed): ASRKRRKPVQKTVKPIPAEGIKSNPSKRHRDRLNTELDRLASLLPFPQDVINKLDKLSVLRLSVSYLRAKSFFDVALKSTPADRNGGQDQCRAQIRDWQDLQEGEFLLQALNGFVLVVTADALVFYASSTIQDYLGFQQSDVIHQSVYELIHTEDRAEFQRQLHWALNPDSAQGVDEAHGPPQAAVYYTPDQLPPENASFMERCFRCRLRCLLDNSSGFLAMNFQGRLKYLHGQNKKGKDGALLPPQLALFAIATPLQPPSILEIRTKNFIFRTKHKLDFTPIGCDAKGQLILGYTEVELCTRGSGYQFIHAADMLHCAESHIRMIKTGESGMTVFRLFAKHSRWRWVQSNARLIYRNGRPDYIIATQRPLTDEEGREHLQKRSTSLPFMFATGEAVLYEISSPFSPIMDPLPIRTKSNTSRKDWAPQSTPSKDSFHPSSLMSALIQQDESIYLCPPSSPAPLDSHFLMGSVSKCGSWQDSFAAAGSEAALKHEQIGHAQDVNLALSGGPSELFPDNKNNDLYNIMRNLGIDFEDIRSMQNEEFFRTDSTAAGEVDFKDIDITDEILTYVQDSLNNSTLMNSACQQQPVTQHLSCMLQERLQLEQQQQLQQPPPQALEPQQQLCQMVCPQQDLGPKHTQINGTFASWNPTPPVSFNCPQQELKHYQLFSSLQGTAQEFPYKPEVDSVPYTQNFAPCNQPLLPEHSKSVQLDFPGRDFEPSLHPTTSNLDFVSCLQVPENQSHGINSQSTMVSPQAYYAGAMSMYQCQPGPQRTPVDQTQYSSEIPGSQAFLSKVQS
T2 sequence (P53762 whole entry partner): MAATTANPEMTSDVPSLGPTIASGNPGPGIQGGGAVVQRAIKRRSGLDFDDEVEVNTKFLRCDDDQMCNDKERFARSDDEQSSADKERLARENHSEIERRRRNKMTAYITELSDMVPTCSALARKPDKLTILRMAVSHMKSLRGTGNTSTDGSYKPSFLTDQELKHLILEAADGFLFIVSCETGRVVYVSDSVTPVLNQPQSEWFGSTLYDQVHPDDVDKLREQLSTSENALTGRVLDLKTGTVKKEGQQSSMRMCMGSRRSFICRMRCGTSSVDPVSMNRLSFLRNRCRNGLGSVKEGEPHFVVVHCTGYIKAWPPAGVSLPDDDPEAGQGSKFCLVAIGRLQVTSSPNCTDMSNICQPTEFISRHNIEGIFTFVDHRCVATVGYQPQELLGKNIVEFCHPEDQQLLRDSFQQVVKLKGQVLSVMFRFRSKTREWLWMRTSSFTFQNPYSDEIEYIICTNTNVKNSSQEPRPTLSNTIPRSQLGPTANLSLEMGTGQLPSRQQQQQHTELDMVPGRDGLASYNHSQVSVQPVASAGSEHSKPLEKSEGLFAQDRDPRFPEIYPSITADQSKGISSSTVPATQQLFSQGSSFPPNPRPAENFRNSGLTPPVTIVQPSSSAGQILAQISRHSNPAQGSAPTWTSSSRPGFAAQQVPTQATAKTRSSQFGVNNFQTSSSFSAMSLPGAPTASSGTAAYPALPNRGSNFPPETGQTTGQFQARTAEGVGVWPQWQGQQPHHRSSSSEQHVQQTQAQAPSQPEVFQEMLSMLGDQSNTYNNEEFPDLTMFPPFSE
Protocol: (§2) Mouse Hepa-1c1c7 or human HepG2 cells were seeded in 8 well chamber slides followed by 24 hours incubation in tryptophan deficient media (HBSS with Ca^2+ and Mg^2+, 10% heat inactivated FBS, 1× non-essential amino acids, 1× sodium pyruvate, 4.5 g/L glucose). Cells were treated with vehicle control (DMSO) or 10 μM ITE, compound 108, or compound 109 for 90 minutes in tryptophan deficient media. Following treatment, cells were fixed in 4% formaldehyde and processed according to standard immunofluorescence staining protocol. Primary anti-AhR antibody was applied at 1:100 dilution (Enzo, BML-SA210) and Alexa488 conjugated secondary antibody was applied at 1:500 dilution (Cell Signaling, 4412S). Actin was stained using Alexa 568 conjugated Phalloidin (Fisher). Samples were mounted in anti-fade mounting medium supplemented with DAPI for nuclear staining and imaged with confocal microscopy (Leica SP5×MP, 63× oil lens).

AhR [9] = molecular target: T3, AhR (Homo sapiens, UniProt P35869); assay: AhR nuclear translocation assay, human HepG2; format: cell-based; conditions: human HepG2, 10 μM, 90 minutes
T3 construct: endogenous in cells; host or cells: HepG2 (human liver cancer cell line)
T3 sequence (P35869 11-848): T1 sequence (P35869 11-848)
Protocol: as §2

[10] = tested on: AHR-dependent transcription of the CYP1A1 gene; assay: CYP1A1 induction in human U937 cells; format: cell-based; conditions: Human U937, 1 μM
Protocol: as §1

[11] = within 8 h; cited from earlier work
[12] = molecular target: T4, aryl hydrocarbon receptor (AHR) (Mus musculus, UniProt P30561); assay: XRE-driven luciferase reporter assay, mouse Hepa1c1c7; format: cell-based
T4 construct: Transfection was performed with 150 ng XRE-luciferase plasmid (Promega); endogenous in cells; host or cells: Hepa-1c1c7 (mouse hepatoma cell line)
T4 sequence (P30561 10-805 limits assumed): as the sequence (P30561 10-805 limits assumed) above
T4 sequence (P53762 whole entry partner): as the sequence (P53762 whole entry partner) above
Protocol: Human HepG2 or mouse Hepa-1c1c7 cells were seeded in 96 well opaque plates at 75,000 cells per well in full medium (DMEM+10% FBS) for 24 hours. Transfection was performed with 150 ng XRE-luciferase plasmid (Promega) with 4:1 Fugene to DNA ratio for 18 hours in Opti-MEM. Transfected cells were treated with AhR agonist (10^−5-10^−12) for 4.5 h in full medium. Cells were lysed and luciferase was activated using the Luciferase Assay System (Promega). Luminescence signals were measured with a FluroStar Omega microplate reader. Luminescence signals of compound treated groups were normalized to vehicle (DMSO) treated control and plotted as concentration dependent fold changes.

[13] = cited from earlier work

## COC(=O)c1cccc(C(=O)c2c[nH]c3ccccc23)n1 [Compound 10, methyl 6-(1H-indole-3-carbonyl)pyridine-2-carboxylate]
[1]
  species found in plasma after oral dosing: only revealed the presence of the much less active carboxylic acid derivative
[2]; 50 nM
  CYP1A1 induction (% of ITE ± SEM): 143 ± 90 % of ITE
[2]; 5 μM
  CYP1A1 induction (% of ITE ± SEM): 88 ± 38 % of ITE
[3]
  plasma stability: highly unstable
[4]
  liver microsomal stability: highly unstable

## O=C(c1cccc(C(F)(F)F)n1)c1c[nH]c2ccccc12 [Compound 109, 1H-indol-3-yl-[6-(trifluoromethyl)-2-pyridyl]methanone]
[5]
  EC50: 2.3 nM
cyp1a1 [6]
  cyp1a1 induction in liver and colon tissue: induced dose-dependent cyp1a1; also recorded: Robust, dose-dependent cyp1a1 induction
  cyp1a1 induction in spleen and blood (WBC): limited cyp1a1 induction was observed in spleen; also recorded: cyp1a1 regulation only at the highest administered doses
[2]; 50 nM
  CYP1A1 induction (% of ITE ± SEM): 124 ± 5 % of ITE
[2]; 5 μM
  CYP1A1 induction (% of ITE ± SEM): 90 ± 17 % of ITE
cyp1a1 [7]; mouse Hepa-1c1c7, 10 nM
  cyp1a1 expression relative to ITE and compound 108: significantly increased cyp1a1 expression
cyp1a1 [7]; mouse Hepa-1c1c7, 10 nM-10 μM, 8 hours
  cyp1a1 expression (qPCR): induced AhR-dependent cyp1a1 expression; also recorded: dose dependent induction of cyp1a1 expression
DSS induced colitis
  colon IL-22 expression, upregulation: 10 fold

## COC(=O)c1csc(C(=O)c2c[nH]c3ccccc23)n1 [ITE, 2-(1H-indol-3-ylcarbonyl)-4-thiazolecarboxylic acid methyl ester, reference compound]
[5]; Human HepG2, fold over vehicle
  XRE luciferase Emax (fold): 63 fold
[5]
  EC50: 5.3 nM
AhR [8]
  AhR nuclear translocation: localized in the nucleus; also recorded: rapid nuclear enrichment of AhR
[2]; 50 nM
  CYP1A1 induction (% of ITE ± SEM): 100 % of ITE
[2]; 5 μM
  CYP1A1 induction (% of ITE ± SEM): 100 % of ITE
AhR [9]
  AhR nuclear translocation: localized in the nucleus; also recorded: rapid nuclear enrichment of AhR
[10]
  CYP1A1 induction (% of ITE ± SEM): 100 % of ITE
[3]
  plasma stability: highly unstable
[4]
  liver microsomal stability: highly unstable
[11]
  ITE inactivated in cell culture: 75%
[12]
  EC50: 30 nM
  XRE luciferase Emax (fold): 79 fold

## Clc1cc2c(cc1Cl)Oc1cc(Cl)c(Cl)cc1O2 [TCDD, 2,3,7,8-tetrachlorodibenzo-p-dioxin]
[13]
  half-life: 2,840 days
